Data reported in the NIST ThermoML archive (doi:10.1021/acs.jced.5b00724).
Where “and” joins values, the source holds several entries; their conditions need not be identical. Equal values may be shown once. ± gives the expanded uncertainty stated by the source.

What was measured:
[1] = Boiling temperature at pressure P; conditions: Liquid, Ebulliometric method (Recirculating still)
[2] = Liquid; for mass density: Vibrating tube method
[3] = refractive index (Na D-line) (dimensionless); conditions: 298.15 K; 101.33 kPa; Liquid; Standard Abbe refractometry

CC1CCC(=O)O1 (stereo not given) [γ-valerolactone]
[1]
Conditions	Boiling temperature at pressure P [°C]
0.58 kPa	65.0 ± 6.3
1.14 kPa	77.5 ± 5.7
1.49 kPa	83.04 ± 3.9
1.86 kPa	87.47 ± 3
2.49 kPa	93.77 ± 2.1
4.37 kPa	106.5 ± 1.3
8.66 kPa	123.7 ± 1.1
10.61 kPa	129.4 ± 0.8
11.92 kPa	132.8 ± 0.6
16.51 kPa	142.2 ± 0.6
20.17 kPa	148.1 ± 0.5
27.32 kPa	157.78 ± 0.35
35.64 kPa	166.5 ± 0.3
43.21 kPa	173.18 ± 0.23
61.04 kPa	185.72 ± 0.2
82.18 kPa	197.04 ± 0.18

[2]
Conditions	mass density	vapor or sublimation pressure [kPa]
293.15 K, 186 kPa	1053.38 ± 1 kg/m3	–
293.15 K, 187.01 kPa	1053.43 ± 1 kg/m3	–
293.15 K, 476.37 kPa	1053.68 ± 1 kg/m3	–
293.15 K, 977 kPa	1054.07 ± 1 kg/m3	–
293.15 K, 1979.3 kPa	1054.81 ± 1 kg/m3	–
293.15 K, 2978.5 kPa	1055.47 ± 1 kg/m3	–
293.15 K, 3976.8 kPa	1056.08 ± 1 kg/m3	–
293.15 K, 4978.1 kPa	1056.65 ± 1 kg/m3	–
298 K, 101.33 kPa	1049.2 ± 1.2 kg/m3	–
298.1 K, 107 kPa	1048.8 ± 1.2 kg/m3	–
298.16 K, 187.01 kPa	1048.68 ± 1 kg/m3	–
298.16 K, 189.01 kPa	1048.83 ± 1 kg/m3	–
298.16 K, 480.38 kPa	1048.97 ± 1 kg/m3	–
298.16 K, 978 kPa	1049.41 ± 1 kg/m3	–
298.16 K, 1980.3 kPa	1050.16 ± 1 kg/m3	–
298.16 K, 2980.5 kPa	1050.86 ± 1 kg/m3	–
298.16 K, 3977.8 kPa	1051.48 ± 1 kg/m3	–
298.16 K, 4976.1 kPa	1052.05 ± 1 kg/m3	–
350.18 K, Closed cell (Static) method	–	1.2 ± 0.2
353.15 K, 187.01 kPa	996.384 ± 1 kg/m3	–
353.15 K, 190.01 kPa	996.734 ± 1 kg/m3	–
353.15 K, 194.01 kPa	997.077 ± 1 kg/m3	–
353.15 K, 198.02 kPa	997.127 ± 1 kg/m3	–
353.15 K, 484.38 kPa	996.824 ± 1.1 kg/m3	–
353.15 K, 492.39 kPa	997.272 ± 1.1 kg/m3	–
353.15 K, 979.01 kPa	997.655 ± 1.1 kg/m3	–
353.15 K, 984.01 kPa	997.904 ± 1 kg/m3	–
353.15 K, 985.01 kPa	997.898 ± 1.1 kg/m3	–
353.15 K, 1981.3 kPa	998.74 ± 1 kg/m3	–
353.15 K, 1987.3 kPa	998.832 ± 1 kg/m3	–
353.15 K, 1988.3 kPa	998.837 ± 1 kg/m3	–
353.15 K, 2979.5 kPa	999.633 ± 1 kg/m3	–
353.15 K, 2985.5 kPa	999.73 ± 1 kg/m3 and 999.724 ± 1 kg/m3	–
353.15 K, 3979.8 kPa	1000.43 ± 1 kg/m3	–
353.15 K, 3983.8 kPa	1000.53 ± 1 kg/m3	–
353.15 K, 3986.8 kPa	1000.53 ± 1 kg/m3	–
353.15 K, 4978.1 kPa	1001.2 ± 1 kg/m3	–
353.15 K, 4983.1 kPa	1001.29 ± 1 kg/m3	–
353.15 K, 4984.1 kPa	1001.29 ± 1 kg/m3	–
353.16 K, 188.01 kPa	997.169 ± 1 kg/m3	–
353.16 K, 489.39 kPa	997.314 ± 1 kg/m3	–
393.15 K, 180 kPa	958.067 ± 1 kg/m3	–
393.15 K, 182 kPa	958.857 ± 1 kg/m3 and 958.463 ± 1 kg/m3	–
393.15 K, 486.38 kPa	958.065 ± 1 kg/m3	–
393.15 K, 491.39 kPa	958.888 ± 1 kg/m3	–
393.15 K, 978 kPa	959.43 ± 1.1 kg/m3	–
393.15 K, 984.01 kPa	959.712 ± 1 kg/m3	–
393.15 K, 1981.3 kPa	960.847 ± 1 kg/m3	–
393.15 K, 1985.3 kPa	960.883 ± 1 kg/m3	–
393.15 K, 2980.5 kPa	961.927 ± 1 kg/m3	–
393.15 K, 2984.5 kPa	961.921 ± 1 kg/m3	–
393.15 K, 3978.8 kPa	962.917 ± 1 kg/m3	–
393.15 K, 3981.8 kPa	962.913 ± 1 kg/m3	–
393.15 K, 4977.1 kPa	963.866 ± 1 kg/m3	–
393.15 K, 4979.1 kPa	963.861 ± 1 kg/m3	–
393.16 K, 203.03 kPa	958.939 ± 1 kg/m3	–
433.14 K, 184 kPa	918.984 ± 1 kg/m3	–
433.15 K, 181 kPa	918.395 ± 1 kg/m3	–
433.15 K, 492.39 kPa	919.562 ± 1 kg/m3	–
433.15 K, 1984.3 kPa	921.775 ± 1 kg/m3	–
433.15 K, 2984.5 kPa	923.091 ± 1 kg/m3	–
433.15 K, 3983.8 kPa	924.314 ± 1 kg/m3	–
433.15 K, 4980.1 kPa	925.496 ± 1 kg/m3	–
433.16 K, 491.39 kPa	919.299 ± 1 kg/m3	–
433.16 K, 982.01 kPa	920.309 ± 1 kg/m3	–
453.14 K, 183 kPa	898.494 ± 1 kg/m3	–
453.15 K, 199.02 kPa	898.908 ± 1 kg/m3	–
453.15 K, 490.39 kPa	898.859 ± 1 kg/m3	–
453.15 K, 983.01 kPa	900.059 ± 1 kg/m3	–
453.15 K, 1982.3 kPa	901.6 ± 1 kg/m3	–
453.15 K, 2985.5 kPa	903.051 ± 1 kg/m3	–
453.15 K, 3983.8 kPa	904.412 ± 1 kg/m3	–
453.15 K, 4981.1 kPa	905.731 ± 1 kg/m3	–

Conditions	refractive index
[3]	1.4316 ± 0.0012
